# Measured values: patent US20230404928A1, “NANOCAPSULE AND USES THEREOF” (CHINA MEDICAL UNIVERSITY, priority 2022, published 2023)
# How the values were obtained:
# MACO mice = assay: thrombolysis time and cerebral blood flow after MCAO; type: in vivo
# [1] = as above; type: in vivo, mice; details: thrombus not completely dissolved
# [2] = drug release behavior study (rtPA release); type: physicochemical; details: in the first hour
# Description: To measure the loading of rtPA (rtPA-FANC=(MTDS)) in FANC, analysis using […] protein analysis (BCA) was performed. The encapsulation efficiency (EE) of rtPA in FANC is 73.94% and the loading capacity (LC) is 22.49%. To observe the rtPA release rate of FANC, further drug release behavior studies were conducted. […] This slower release behavior can effectively protect rtPA from metabolic effects and reduce the damage caused in the blood circulation system.
# [3] = test system: neural precursor cells (NPCs); assay: Ki-67 immunohistochemistry of brain sections (NPC proliferation, SVZ and HDG); type: in vivo, mice; details: SVZ and HDG areas, versus saline control
# Text: FIGS. 9A to 9D show representative images of Ki-67 staining after MTDS with MN treatment in comparison with saline control, free rt-PA, MTDS in SVZ area (FIG. 9A) and HDG area (FIG. 9B). (Scale bar=50 μm). Quantitative data of NPCs by immunohistochemistry staining in SVZ area (FIG. 9C) (Ki-67^+ cells) and HDG area (FIG. 9D) (Ki-67^+ cells).
# The subventricular zone (SVZ) and hippocampal dentate gyrus (DG) are known to trigger the activation of resting neural precursor cells (NPCs) when the brain suffers from ischemic injury. NPCs mainly reside in the SVZ, while the DG has the ability to differentiate into a range of neurons and glial cells.
substance,measurement,setting,value
recombinant tissue-type plasminogen activator [rtPA],thrombolytic activity,"MACO mice; FIG. 8a, right MCA images",able to dissolve the thrombus
same,time to partial thrombolysis,MACO mice; rtPA 10 mg kg^−1,approximately 80 minutes
same,blood flow restored (CBF),"MACO mice; within 120 minutes, rtPA 10 mg kg^−1",approximately 80%
same,"CBF recovery, maximum",[1],≤ 90%
same,rtPA release,[2],more than 60%
same,number of Ki-67^+ cells,[3],no significant difference
